{"source": "patent US9771357B2", "about": "“ALXR agonist compound” (ONO PHARMACEUTICAL CO., LTD., priority 2013, dated 2017)", "biological_target": "T1, ALXR (Homo sapiens, UniProt P25090)", "T1 construct": "expressed in transfected cells; host or cells: CHO-K1", "T1 sequence (P25090 1-351)": "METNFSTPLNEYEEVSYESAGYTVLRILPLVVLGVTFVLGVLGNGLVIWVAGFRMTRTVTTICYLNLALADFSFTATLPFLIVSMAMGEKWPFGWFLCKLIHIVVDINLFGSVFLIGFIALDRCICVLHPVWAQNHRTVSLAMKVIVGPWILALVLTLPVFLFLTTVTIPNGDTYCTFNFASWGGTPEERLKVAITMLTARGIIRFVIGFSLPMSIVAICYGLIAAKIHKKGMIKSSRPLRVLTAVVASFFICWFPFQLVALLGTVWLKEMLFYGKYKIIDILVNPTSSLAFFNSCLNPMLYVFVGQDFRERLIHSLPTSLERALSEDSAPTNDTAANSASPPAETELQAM", "test": "IP1 (Inositol Monophosphate) Assay", "format": "cell-based", "settings": "ALXR/Gα16 expression CHO-K1 cell strain; for IP1 Concentration: compound at 3 μM, 30 minutes, medium group 293.6", "method": "IP1 (Inositol Monophosphate) Assay\nAn ALXR/Gα16 expression CHO-K1 cell strain having 3×10^4 cells/100 μL was seeded on a 96-well plate using an F-12 culture medium (10% FBS, 100 μmol/L nonessential amino acid, 100 U/mL penicillin, 100 μg/mL streptomycin, 0.25 μg/mL Amphotericin B, 400 μg/mL Geneticin, and 5 μg/mL Puromycin), and cultured at 37° C. in 5% CO2 overnight. After the culture supernatant was removed, a 70-μL Basal buffer (10 mmol/L HEPES, 1 mmol/L CaCl2, 0.5 mmol/L MgCl2, 4.2 mmol/L KCl, 146 mmol/L NaCl, 5.5 mmol/L glucose, 50 mmol/L LiCl), each buffer containing one of the compounds and the reference example compound, was added. Here, as the medium group, a Basal buffer containing 1% DMSO was used. After the cell strain was further cultured at 37° C. in 5% CO2 for 30 minutes, IP1-d2 conjugate (Cisbio) and Anti-IP1 cryptate Tb conjugate (Cisbio) diluted with Lysis buffer (Cisbio) were each added in an amount of 15 μL. The culture was allowed to stand for 1 hour under shaded conditions at room temperature. Subsequently, using EnVision (PerkinElmer), measurement was performed at an excitation wavelength of 320 nm and fluorescence wavelengths of 620 nm and 665 nm, and the fluorescence ratio 665 nm/620 nm was calculated. With respect to the IP1 concentration, a calibration curve was produced using an IP1 calibrator (Cisbio) to be converted into concentration. The measured values were analyzed using XLfit (IDBS)."}
{"smiles": "N#Cc1sc(C2CCN(C(=O)Nc3ccc(C(F)(F)F)cc3)CC2)nc1-c1ccccc1", "note": "[Example 60, 4-(5-Cyano-4-phenyl-1,3-thiazol-2-yl)-N-[4-(trifluoromethyl)phenyl]-1-piperidinecarboxamide]", "values": [{"measurement": "IP1 Concentration", "result": 1020.9, "unit": "nmol/L"}]}
{"smiles": "Cc1sc(C2(O)CCN(C(=O)Nc3ccc(C(F)(F)F)cc3)CC2)nc1-c1cccc(F)c1", "note": "[27(1), 4-[4-(3-Fluorophenyl)-5-methyl-1,3-thiazol-2-yl]-4-hydroxy-N-[4-(trifluoromethyl)phenyl]-1-piperidinecarboxamide]", "values": [{"measurement": "IP1 Concentration", "result": 539.3, "unit": "nmol/L"}]}
{"smiles": "O=C(Nc1ccc(C(F)(F)F)cc1)N1CCC(c2nc(-c3cccnc3)cs2)CC1", "note": "[Example 40, 4-[4-(3-Pyridyl)-1,3-thiazol-2-yl]-N-[4-(trifluoromethyl)phenyl]-1-piperidinecarboxamide]", "values": [{"measurement": "IP1 Concentration", "result": 789.9, "unit": "nmol/L"}]}
{"smiles": "Cc1sc(C2(NS(C)(=O)=O)CCN(C(=O)Nc3ccc(C(F)(F)F)cc3)CC2)nc1-c1ccccc1", "note": "[Example 51, 4-(5-Methyl-4-phenyl-1,3-thiazol-2-yl)-4-[(methylsulfonyl)amino]-N-[4-(trifluoromethyl)phenyl]-1-piperidinecarboxamide]", "values": [{"measurement": "IP1 Concentration", "result": 592.1, "unit": "nmol/L"}]}
{"smiles": "Cc1sc(C2CCN(C(=O)Nc3ccc(C(F)(F)F)cc3)CC2)nc1-c1cccc(F)c1", "note": "[29(2)]", "values": [{"measurement": "IP1 Concentration", "result": 853.7, "unit": "nmol/L"}]}
{"smiles": "O=C(Nc1cccnc1)N1CCC(c2nc(-c3ccccc3)cs2)CC1", "note": "[Reference Example Compound, 4-(4-Phenyl-1,3-thiazol-2-yl)-N-(3-pyridyl)-1-piperidinecarboxamide, reference compound]", "values": [{"measurement": "enhancement of IP1 concentration as compared with the medium group", "setting": "3 μM", "result": "no enhancement was seen"}, {"measurement": "IP1 Concentration", "result": 282.5, "unit": "nmol/L"}]}
